According to PubChem BioAssay (NCI):
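Interpolation was linear, between the two tested concentrations surrounding the appropriate level; five concentrations were tested over 48 hours in 96-well plates. TGI denotes the concentration required for complete inhibition of growth.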

Key:
Assay in all cases: NCI tumour cell line growth inhibition, 48 h
CAKI-1 renal = test system: CAKI-1 renal
IGROV1 ovarian = test system: IGROV1 ovarian
NCI-H23 lung = test system: NCI-H23 lung
SK-MEL-28 melanoma = test system: SK-MEL-28 melanoma
HS 578T breast = test system: HS 578T breast
NCI-H460 lung = test system: NCI-H460 lung
SNB-19 CNS = test system: SNB-19 CNS
HCT-116 colon = test system: HCT-116 colon
RPMI-8226 leukemia = test system: RPMI-8226 leukemia
A549 NSCLC = test system: A549 NSCLC
SR leukemia = test system: SR leukemia
UO-31 renal = test system: UO-31 renal
OVCAR-5 ovarian = test system: OVCAR-5 ovarian
SF-295 CNS = test system: SF-295 CNS
OVCAR-8 ovarian = test system: OVCAR-8 ovarian
A498 renal = test system: A498 renal
SF-539 CNS = test system: SF-539 CNS
MDA-N = test system: MDA-N
HL-60(TB) leukemia = test system: HL-60(TB) leukemia

SMILES	TGI (CAKI-1 renal) [µM]	TGI (IGROV1 ovarian) [µM]	TGI (NCI-H23 lung) [µM]	TGI (SK-MEL-28 melanoma) [µM]	TGI (HS 578T breast) [µM]	TGI (NCI-H460 lung) [µM]	TGI (SNB-19 CNS) [µM]	TGI (HCT-116 colon) [µM]	TGI (RPMI-8226 leukemia) [µM]	TGI (A549 NSCLC) [µM]	TGI (SR leukemia) [µM]	TGI (UO-31 renal) [µM]	TGI (OVCAR-5 ovarian) [µM]	TGI (SF-295 CNS) [µM]	TGI (OVCAR-8 ovarian) [µM]	TGI (A498 renal) [µM]	TGI (SF-539 CNS) [µM]	TGI (MDA-N) [µM]	TGI (HL-60(TB) leukemia) [µM]
C/C1=C\CC[C@@]2(C)O[C@@H]2[C@H]2OC(=O)C(C)C2C[C@H]1O (some centres undefined)	> 100	> 100	> 100	> 100	> 100	> 100	> 100	> 100	> 100	> 100	> 100	> 100	> 100	> 100	> 100	–	–	–	–
O=C(/C=C/c1cccs1)c1ccc(C(=O)/C=C/c2cccs2)cc1	> 100	> 100	> 100	> 100	> 100	> 100	> 100	–	–	> 100	> 100	> 100	> 100	> 100	> 100	> 100	> 100	–	–
N=C(N)C1CN(CC=O)C(=O)NC1=O (centres undefined)	–	> 100	> 100	> 100	–	> 100	> 100	> 100	> 100	> 100	> 100	> 100	> 100	> 100	> 100	> 100	–	> 100	> 100
CC(C)N1CCCOC(c2ccc([N+](=O)[O-])cc2)O1 (centres undefined)	> 100	> 100	> 100	> 100	–	> 100	–	> 100	–	> 100	> 100	> 100	> 100	> 100	> 100	> 100	> 100	> 100	–
O=C(/C=C/c1ccccc1)CCC1C(=O)NC(=O)NC1=O	> 100	> 100	> 100	> 100	> 100	> 100	> 100	> 100	> 100	> 100	–	> 100	> 100	> 100	> 100	> 100	> 100	> 100	> 100
CCO/C(O)=C(/C(=N)N1CCCC1)C(=O)Nc1ccc(Cl)cc1	> 100	> 100	> 100	> 100	> 100	> 100	> 100	> 100	> 100	> 100	–	–	> 100	> 100	> 100	> 100	> 100	> 100	> 100
CC(C)C(Cl)CC/C(CBr)=C(\Cl)CCl (centres undefined)	17.9	4.09	8.65	12	11.8	29.3	28.3	8.35	5	36.1	–	30.8	31.2	30.6	4.65	35.7	29.5	5.63	2.24
Cc1cc(NCC2CC/C(=C\C=C\c3ccccc3)C2=O)no1 (centres undefined)	> 100	> 100	> 100	> 100	> 100	> 100	> 100	> 100	88.8	> 100	> 100	> 100	> 100	> 100	> 100	> 100	> 100	–	> 100
Cc1ccccc1NC(=O)/C(C#N)=N\Nc1nc[nH]c1C(N)=O	18.2	> 100	> 100	> 100	> 100	> 100	> 100	> 100	> 100	> 100	–	> 100	> 100	> 100	> 100	–	–	> 100	> 100
CC(Oc1ccc(Cl)cc1Cl)C(=O)NN1C(=O)CSC1c1ccc(Cl)cc1 (centres undefined)	34.2	> 100	> 100	> 100	> 100	> 100	> 100	> 100	> 100	> 100	41.3	> 100	> 100	> 100	> 100	80	43.9	–	84.7
CC1=[N+]([O-])C(C)(C)N(O)C1(C)C	–	> 100	> 100	> 100	–	> 100	> 100	> 100	> 100	> 100	> 100	> 100	> 100	> 100	> 100	> 100	> 100	> 100	> 100
O=C(O)CCSc1nnc(COc2ccc(Cl)cc2)n1-c1ccccc1	> 100	> 100	> 100	> 100	–	> 100	> 100	> 100	–	> 100	–	> 100	> 100	> 100	> 100	> 100	> 100	> 100	> 100
O=C(Nc1ccccc1)C(=O)C(C(=O)c1ccccc1)C(c1ccccc1)c1ccccc1 (centres undefined)	> 10	> 10	> 10	> 10	–	–	–	–	> 10	> 10	> 10	–	–	> 10	> 10	–	–	> 10	> 10
COC(=O)N/N=C(\C)C(CN1CCOCC1)C(c1ccccc1)c1cc2ccccc2oc1=O (centres undefined)	> 100	> 100	> 100	> 100	> 100	> 100	> 100	> 100	53.4	> 100	56.5	> 100	> 100	> 100	> 100	> 100	> 100	–	85.3
COc1ccc(C(CC(=O)c2ccccc2)C(=O)c2ccc3c(c2)OCO3)cc1 (centres undefined)	> 100	> 100	> 100	> 100	–	> 100	> 100	–	> 100	> 100	> 100	> 100	–	> 100	> 100	> 100	–	> 100	> 100
O=C(CCCN1CC=C(n2c(=O)[nH]c3ccccc32)CC1)c1cccs1	> 100	> 100	> 100	> 100	–	> 100	> 100	> 100	> 100	> 100	> 100	> 100	> 100	> 100	> 100	> 100	> 100	> 100	> 100
CO[C@H](c1ccccc1)[C@H](O)[C@](O)(c1ccccc1)P(=O)(OC)OC	> 100	> 100	> 100	> 100	–	> 100	> 100	> 100	> 100	> 100	> 100	> 100	> 100	> 100	> 100	> 100	> 100	> 100	> 100
O=S1(=O)OCCCOS(=O)(=O)C1Br	> 100	–	> 100	> 100	–	–	> 100	> 100	> 100	> 100	> 100	> 100	> 100	> 100	> 100	–	> 100	> 100	–
COC(=O)c1cc(C#N)[nH]c1-c1cccs1	> 100	–	> 100	> 100	–	> 100	> 100	> 100	> 100	> 100	> 100	> 100	> 100	> 100	> 100	86	> 100	> 100	–
COC(=O)/C=C(\S/C(=C(/c1ccc(OC)cc1)n1cc(C(=O)OC)c(C(=O)OC)n1)c1ccc(OC)cc1)C(=O)OC	6.41	22.5	> 100	> 100	> 100	> 100	> 100	31.3	> 100	> 100	–	16	69.7	> 100	4.8	> 100	> 100	> 100	7.64
Cc1cc2nc3c(C#N)c(-c4ccccc4)cc(Nc4ccc(F)cc4)n3c2cc1C	> 100	–	47.2	> 100	–	–	–	> 100	> 100	–	–	–	45.2	76.2	25.5	93.5	34.8	–	–
C=C(Cl)C(Br)(CBr)CCC(Br)C(C)(C)Br (centres undefined)	> 10	3.68	> 10	> 10	–	–	> 10	3.92	4.96	> 10	> 1	> 10	> 10	> 10	> 1	> 10	4.92	> 10	> 1
